One assay concerns NCI H929 cells. The assay is described as follows: JC1 BH3 profiling, NCI H929. Conditions: Figure 4A. In kind it is cell-based.
The next assay concerns K562 cells. The assay can be described thus: JC1 BH3 profiling, K562. The class given is cell-based. Conditions: Figure 4B.

With `CC[C@H](C)[C@H](NC(=O)[C@H](CCC(=O)O)NC(=O)[C@H](CC(=O)O)NC(=O)CNC(=O)[C@H](CC(C)C)NC(=O)[C@H](CCCNC(=N)N)NC(=O)[C@H](CCCNC(=N)N)NC(=O)[C@H](CC(C)C)NC(=O)CNC(=O)[C@H](CCC(N)=O)NC(=O)[C@@H](NC(=O)[C@H](CCSC)NC(=O)[C@H](Cc1c[nH]c2ccccc12)NC(=O)[C@@H](NC(=O)[C@H](CCC(=O)O)NC(=O)[C@@H]1CCCN1C(=O)[C@H](CCCNC(=N)N)NC(C)=O)[C@@H](C)CC)[C@@H](C)O)C(=O)N[C@@H](CC(N)=O)C(=O)N[C@@H](C)C(=O)N[C@@H](Cc1ccc(O)cc1)C(=O)N[C@@H](Cc1ccc(O)cc1)C(=O)N[C@@H](C)C(=O)N[C@@H](CCCNC(=N)N)C(N)=O` [MS-1], the “Mitochondrial depolarization in NCI H929 (BH3 profiling)” value with NCI H929 cells is given as “mitochondrial depolarization was observed”. The “Mitochondrial depolarization in K562 (BH3 profiling)” value with K562 cells was “insensitive”.

Regarding Ac-WSSAAQLTAARLKALGDELHQ-NH2 [HRK], in the assay on NCI H929 cells, the “Mitochondrial depolarization in NCI H929 (BH3 profiling)” value is “not affected”.

In the case of `CSCC[C@H](NC(=O)[C@H](CCCNC(=N)N)NC(=O)[C@H](CCCNC(=N)N)NC(=O)[C@H](CC(C)C)NC(=O)[C@H](CCC(=O)O)NC(=O)[C@H](CCCNC(=N)N)NC(=O)CNC(=O)[C@H](Cc1ccc(O)cc1)NC(=O)[C@H](CCCNC(=N)N)NC(=O)[C@H](CCC(N)=O)NC(=O)[C@H](C)NC(=O)[C@H](C)NC(=O)[C@H](Cc1c[nH]c2ccccc12)NC(=O)[C@H](CC(C)C)NC(C)=O)C(=O)N[C@@H](CO)C(=O)N[C@@H](CC(=O)O)C(=O)N[C@@H](CCC(=O)O)C(=O)N[C@@H](Cc1ccccc1)C(=O)N[C@@H](CCC(=O)O)C(=O)NCC(=O)N[C@@H](CO)C(=O)N[C@@H](Cc1ccccc1)C(=O)N[C@@H](CCCCN)C(=O)NCC(=O)N[C@@H](CC(C)C)C(N)=O` [Bad], the “Mitochondrial depolarization in NCI H929 (BH3 profiling)” value with NCI H929 cells is given as “not affected”.

For the origin of these results see PMC5381274 (FEBS letters, 2016).
